Results published in US11117899B2, “[1,2,4]triazolo[1,5-c]pyrimidine derivative as A2A receptor inhibitor” (MEDSHINE DISCOVERY INC., priority 2017, dated 2021).

Target: T1, Human adenosine A2A receptor (Homo sapiens, UniProt P29274)
T1 construct: host or cells: CHO
Test: Human adenosine A2A receptor calcium flux assay
Format: cell-based
Details: A2A stable CHO cell strain, antagonist mode against agonist NECA at EC80, FLIPR Fluo-4
Method: Human adenosine A2A receptor calcium flux assay
A2A stable cell strain was constructed by Shanghai WuXi PharmaTech, and the host cell was CHO.
Fluo-4 Direct Kit (Invitrogen, Cat. No. F10471). After the fluorescent detection reagent (specifically binding to calcium ions and causing an increase in fluorescence signal) in the kit was incubated with the cells for a suitable period of time, the compound was added to stimulate the cells to cause changes in intracellular calcium flux, thereby causing changes in the fluorescent signal, which can reflect the strength of the agonistic or inhibitory activity of the compound.
F12+10% fetal bovine serum+geneticin 300 ug/ml+blasticidin 2 ug/ml Compound dilution buffer:
Hanks Balanced Salt Buffer (Invitrogen)+20 mM HEPES, configured before each use
The test compounds were dissolved in DMSO to prepare 10 mM stock solutions. The test compounds were diluted to 0.2 mM with DMSO, and the reference compound CGS-15943 was diluted to 0.015 mM with DMSO. Next, 10 points of three-fold serial dilutions were made with ECHO. 900 nl was transferred to the compound plate (Greiner-781280), and 30 ul of compound dilution buffer was added. The final starting concentration of the test compounds was 1 uM and CGS-15943 was 0.075 uM.
Cryopreserved A2A cells were resuscitated, and then resuspended in culture medium to 1×10^6 cells/ml. The suspension was seeded into 384-well polylysine-coated cell plates (Greiner-781946) at 20 μl/well and incubated overnight in a 5% CO2 incubator at 37° C.
The cell plate prepared the day before was taken out from the incubator, and 20 ul of 2× Fluo-4 Direct™ buffer was added to each well. The plate was incubated for 50 minutes in a 5% CO2 incubator at 37° C. and allowed to stand at room temperature for 10 minutes.
Dilution of agonist NECA: 10 points of three-fold serial dilutions were made with Echo for NECA from a starting concentration of 0.15 mM. 900 nL was then transferred to the corresponding compound plate; and then 30 μl of compound dilution buffer was added to the corresponding compound plate. The final starting concentration was 750 nM.
FLIPR instrument software was run. According to the programmed procedure, 10 ul of compound dilution buffer was added to the cell plate and the fluorescence signal was read. 10 ul of the agonist reference compound at the indicated concentration was then added to the cell plate and the fluorescent signal was read. After reading, the data was exported by the “Max-Min”, “Read 90 to Maximum allowed” method in the software, and the EC80 of the A2A cell line was calculated. The agonist was prepared at a concentration of 6× EC80. A 6× EC80 concentration of a reference compound agonist of the corresponding cells was prepared with a buffer solution, and added at 30 ul/well to the corresponding compound plate for use.
FLIPR instrument software was run. According to the programmed procedure, 10 μl of the test compounds and reference compound at an indicated concentration was added to the cell plate and the fluorescence signal was read. 10 ul of the reference compound agonist at a concentration of 6× EC80 was then added to the cell plate and the fluorescent signal was read. For the agonist detection of the compounds, the data was exported by the “Max-Min”, “Read 1 to 90” method in the software. For the antagonist detection of the compound, the data was exported by the “Max-Min”, “Read 90 to Maximum allowed” method in the software. Data were analyzed by GraphPad Prism 5.0 and the IC50 values of the test compounds were calculated.

T1 sequence (P29274 whole entry): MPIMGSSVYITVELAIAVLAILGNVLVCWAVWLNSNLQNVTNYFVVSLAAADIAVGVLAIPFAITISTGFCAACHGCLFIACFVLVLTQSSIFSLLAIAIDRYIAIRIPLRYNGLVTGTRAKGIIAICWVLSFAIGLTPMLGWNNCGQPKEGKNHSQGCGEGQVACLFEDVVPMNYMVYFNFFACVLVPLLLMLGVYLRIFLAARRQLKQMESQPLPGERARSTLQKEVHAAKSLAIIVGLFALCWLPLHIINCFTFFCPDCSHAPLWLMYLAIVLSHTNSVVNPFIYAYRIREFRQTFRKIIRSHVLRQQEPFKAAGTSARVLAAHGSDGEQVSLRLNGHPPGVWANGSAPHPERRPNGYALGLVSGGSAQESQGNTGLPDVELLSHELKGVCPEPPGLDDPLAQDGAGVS

| SMILES | IC50 |
| --- | --- |
| Cc1cc(-c2c(-c3ccc(O)cc3)nc(N)n3ncnc23)cc(C(F)(F)F)n1 [Example A-10] | 0.88 nM |
| CC1C=C(c2c(-c3ccccc3)nc(N)n3ncnc23)CC(C)O1 (centres unmarked) [Example B-24] | 1.18 nM |
| Cc1nc2c(-c3ccc4[nH]nnc4c3)c(-c3ccccc3)nc(N)n2n1 [Example C-22] | 2.96 nM |
| Nc1nc(-c2ccccc2)c(-c2ccc3c(c2)CCCN3)c2ncnn12 [Example B-17] | 1.89 nM |
| Nc1nc(-c2ccc(F)cc2)c(-c2ccc3nn[nH]c3c2)c2nc(CO)nn12 [Example C-45] | 2.06 nM |
| Cc1cc(-c2c(-c3ccc(C(F)(F)F)cc3)nc(N)n3ncnc23)cc(C(F)(F)F)n1 [Example A-13] | 13.8 nM |
| Nc1nc(-c2ccccc2)c(-c2ccc3c(c2)OCO3)c2ncnn12 [Example B-9] | 48 nM |
| Nc1nc(-c2ccccc2)c(-c2ccc3[nH]nc(C(F)(F)F)c3c2)c2ncnn12 [Example B-10] | 1.98 nM |
| Cc1cc(-c2c(-c3ccc(Cl)cc3)nc(N)n3ncnc23)cc(C(F)(F)F)n1 [Example A-9] | 1.13 nM |
| Cc1cc(-c2c(-c3ccccc3)nc(N)n3nc(C(=O)NCc4ccc(F)cc4F)nc23)cc(C)n1 [Example C-18] | 2.39 nM |
| COc1ccccc1Cc1nc2c(-c3cc(C)nc(C(F)(F)F)c3)c(-c3ccccc3)nc(N)n2n1 [Example C-15] | 20.4 nM |
| Cc1cc(-c2c(-c3ccc(C)o3)nc(N)n3nc(C#N)nc23)cc(C(F)(F)F)n1 [Example C-74] | 1.72 nM |
| Cc1cc(-c2c(-c3ccccc3)nc(N)n3nc(CC4CC4)nc23)cc(C(F)(F)F)n1 [Example C-17] | 10.4 nM |
| Cc1cc(-c2c(-c3ccc(F)cc3)nc(N)n3nc(C(C)(C)O)nc23)cc(C(F)(F)F)n1 [Example C-75] | 2.03 nM |
| Nc1nc(-c2ccc(F)cc2F)c(-c2ccc3[nH]nnc3c2)c2nc(C(F)(F)F)nn12 [Example C-34] | 73.8 nM |
| CCc1nc2c(-c3cc(C)nc(C(F)(F)F)c3)c(-c3ccccc3OC)nc(N)n2n1 [Example C-30] | 2.99 nM |
| Nc1nc(-c2ccccc2)c(-c2ccc3[nH]nnc3c2)c2nc(CO)nn12 [Example C-24] | 0.95 nM |
| COc1cc(F)ccc1-c1nc(N)n2nc(C)nc2c1-c1cc(C)nc(C(F)(F)F)c1 [Example C-39] | 10.9 nM |
| Nc1nc(-c2ccccc2)c(-c2ccc3[nH]nnc3c2)c2ncnn12 [Example B-33] | 0.12 nM |
| Cc1cc(-c2c(-c3ccccn3)nc(N)n3ncnc23)cc(C(F)(F)F)n1 [Example A-7] | 5.83 nM |
| Cc1cc(-c2c(-c3ccc(F)cc3)nc(N)n3nc(CO[C@H]4CCOC4)nc23)cc(C(F)(F)F)n1 [Example C-71] | 0.82 nM |
| Cc1cc(-c2c(-c3ccccc3)nc(N)n3ncnc23)ccc1F [Example B-2] | 7.82 nM |
| Cc1cc(-c2c(-c3ccc(C)o3)nc(N)n3nc(CO)nc23)cc(Cl)n1 [Example C-67] | 0.26 nM |
| Cc1cc(-c2c(-c3ccccc3)nc(N)n3nc(C4CC4)nc23)cc(C(F)(F)F)n1 [Example C-10] | 3.68 nM |
| CCc1nc2c(-c3cc(C)nc(C(F)(F)F)c3)c(-c3ccc(F)cc3F)nc(N)n2n1 [Example C-36] | 7.92 nM |
| Cc1cc(-c2c(-c3ccc(F)cc3)nc(N)n3nc(C)nc23)cc(Cl)n1 [Example C-54] | 1.08 nM |
